From US8461171B2, “Hybrid opioid compounds and compositions” (QRxPHARMA Ltd., priority 2010, dated 2013)

Experiments:
Type in all cases: in vivo
CD1 mice [1] = experiment: Oral antinociception in CD1 mice (tail flick), morphine/oxycodone alone, combined or as prodrugs; details: for oral antinociceptive activity (in words): CD1 mice
CD1 mice [2] = experiment: Intracerebroventricular (icv) antinociceptive activity in CD1 mice; details: for Icv ED50 values: CD1 mice, confidence range in brackets
CD1 mice [3] = experiment: 24-hour tolerance study after icv administration in CD1 mice; details: for MPE still present after 24 hours: 24 hours after icv administration
CD1 mice [4] = experiment: Behavioral observations after icv administration
Method: These curves enabled the determination of ED50 values. […] Some behavioral observations are also reported.
This behavior was not observed 10 minutes post injection. […] The animals were active for about two hours. After 24 hours, the animals maintained about 20% MPE.

Compound	oral antinociceptive activity (in words) (CD1 mice [1]; oral)	peak time (pt), time to maximum effect (CD1 mice [2]) [min]	Icv ED50 values (CD1 mice [2])	MPE still present after 24 hours (CD1 mice [3])	24-h Tolerance Study, outcome (CD1 mice [3]; icv)	24-h Tolerance Study, Day 1 (CD1 mice [3]; icv, Day 1)	24-h Tolerance Study, Day 2 (CD1 mice [3]; icv, Day 2)	also measured
COc1ccc2c3c1O[C@H]1/C(=N/OCC(=O)O[C@H]4C=CC5C6Cc7ccc(O)c8c7[C@@]5(CCN6C)[C@H]4O8)CC[C@@]4(O)C(C2)N(C)CC[C@]314 (stereo partly shown) [MLN II-31]	weak antinociceptive activity							maximum antinociception (CD1 mice [1]; 10 mg/kg, 4 hours after oral administration): 25%; antinociceptive activity (CD1 mice [1]; oral, measured from 15 min to 24 hours): 7-20 % of MPE
COc1ccc2c3c1O[C@H]1C(=NOC(=O)O[C@H]4C=CC5C6Cc7ccc(O)c8c7[C@@]5(CCN6C)[C@H]4O8)CC[C@@]4(O)C(C2)N(C)CC[C@]314 (stereo partly shown) [MLN II-45]	the same activity as when oxycodone and morphine are administered together in a 1:1 ratio							
CN1CC[C@]23c4c5ccc(O)c4O[C@H]2[C@@H](NC(=O)COCCOCCn2cc(COCC(=O)N[C@H]4CC[C@@]6(O)C7Cc8ccc(O)c9c8[C@@]6(CCN7C)[C@H]4O9)nn2)CC[C@@]3(O)C1C5 [MLN II-83]		20	0.190 nmol/mouse (0.065-0.558)	20 ± 10 % MPE	seems to induce some tolerance	67.95 ± 13.62	48.35 ± 15.68	
CN1CC[C@]23c4c5ccc(O)c4O[C@H]2[C@@H](NC(=O)COCCOCc2cn(CCOCCOCC(=O)N[C@@H]4CC[C@@]6(O)C7Cc8ccc(O)c9c8[C@@]6(CCN7C)[C@H]4O9)nn2)CC[C@@]3(O)C1C5 [MLN II-120]		10	0.571 nmol/mouse (0.423-0.770)		No tolerance	95.65 ± 4.65	91.38 ± 13.08	animals showing barrel rolling and out stretched limbs (CD1 mice [4]; with 2 minutes of icv injection, not observed 10 minutes post injection): about 50%
CN1CC[C@]23c4c5ccc(O)c4O[C@H]2[C@@H](NC(=O)COCCOCCOCc2cn(CCOCCOCC(=O)N[C@H]4CC[C@@]6(O)C7Cc8ccc(O)c9c8[C@@]6(CCN7C)[C@H]4O9)nn2)CC[C@@]3(O)C1C5 [MLN II-121]		10	0.272 nmol/mouse (0.164-0.453)	about 20 % MPE				behavioral observations (CD1 mice [4]; after icv administration): pacing and had straub tails; time the animals were active (CD1 mice [4]; after icv administration): about two; MPE still present after 24 hours (CD1 mice [3]; listed as MLN II- 121): 23.06 ± 4.30 % MPE; 48 hour tolerance test, outcome (CD1 mice [3]; icv, 48 hour test): No tolerance; 48 hour tolerance test, Day 1 (CD1 mice [3]; icv, 48 hour test, Day 1): 90.00 ± 10.69; 48 hour tolerance test, Day 2 (CD1 mice [3]; icv, 48 hour test, Day 2): 80.41 ± 12.06
CN1CC[C@]23c4c5ccc(O)c4O[C@H]2[C@@H](O)C=C[C@H]3[C@H]1C5 [Morphine, reference compound]		10	2.68 nmol/mouse					peak time [pt] (CD1 mice [2]): 10 ′
